Measured values from US20110077402A1, “ADMINISTRATION OF DIPEPTIDYL PEPTIDASE INHIBITORS” (priority 2007, published 2011).

Test system: plasma glucose
Assay: Effect of co-administration with pioglitazone on plasma glucose in db/db mice
Type: in vivo
Conditions: male db/db mice, 21 days in powder chow (0.03% succinate salt of Compound I and/or 0.0075% pioglitazone hydrochloride), feeding condition, average (n=7) ± standard deviation; control 472.9 ± 74.6
Text: Male db/db (BKS.Cg-+Lepr^db/+Lepr^db) mice (6 weeks of age, CLEA Japan (Tokyo, Japan)) were divided into 4 groups (n=7 in each group) comprising Group A to Group D. Group A had free access to CE-2 powder chow (CLEA Japan) for 21 days. […] During 21 days of administration of the powder chow, there were not significant differences in the administration amount of the powder chow in the above 4 groups. After 21 days of administration of the powder chow, blood samples were taken from the orbital veins of the mice by capillary pipette under feeding condition, and plasma glucose levels were enzymatically measured by using Autoanalyzer 7080 (Hitachi, Japan). The values in the table means average (n=7)±standard deviation.

Cn1c(=O)cc(N2CCC[C@@H](N)C2)n(Cc2cc(F)ccc2C#N)c1=O [Compound I, 2-[6-(3-Amino-piperidin-1-yl)-3-methyl-2,4-dioxo-3,4-dihydro-2H-pyrimidin-1-ylmethyl]-4-fluoro-benzonitrile]
Plasma Glucose: 410.3 ± 47.9 mg/dL

CCc1ccc(CCOc2ccc(CC3SC(=O)NC3=O)cc2)nc1 (centres unmarked) [Pioglitazone, 5-{[4-(2-(5-ethyl-2-pyridyl)ethoxy)phenyl]-methyl}-thiazolidine-2,4-dione]
Plasma Glucose: 394.4 ± 47.9 mg/dL
